Legend:
Format in all cases: in vivo
Phytophthora infestans = assay: whole plant or invertebrate; conditions: 200 ppm test suspension
Plasmopara viticola = assay: Test K: grape downy mildew, grape seedlings inoculated and then sprayed, disease rating; conditions: 200 ppm test suspension
Fusarium graminearum = assay: whole plant or invertebrate; conditions: 200 ppm test suspension
Septoria nodorum = assay: Test D: wheat glume blotch, test suspension sprayed on wheat seedlings, disease rating; conditions: 200 ppm test suspension
[1] = test system: Colletotrichum orbiculare; assay: Test F: cucumber Colletotrichum anthracnose, test suspension sprayed on cucumber seedlings, disease rating; conditions: 200 ppm test suspension
Rhizoctonia oryzae = assay: Test I: turf brown patch, test suspension sprayed on creeping bent grass seedlings, disease rating; conditions: 200 ppm test suspension
[2] = test system: Erysiphe graminis f. sp. tritici; assay: Test A: wheat powdery mildew, test suspension sprayed on wheat seedlings, disease rating; conditions: 200 ppm test suspension; 100 = 100% disease control, 0 = no control
Pythium aphanidermatum = assay: Test L: bluegrass pythium blight, test suspension sprayed on bluegrass seedlings, disease rating; conditions: 200 ppm test suspension;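 further: 200 ppm unless marked * meaning 40 ppm or ** meaning 10 ppm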
Botrytis cinerea = assay: Test H: tomato Botrytis, test suspension sprayed on tomato seedlings, disease rating; conditions: 200 ppm test suspension
[3] = test system: Puccinia recondite f sp. tritici; assay: Test B: wheat leaf rust, test suspension sprayed on wheat seedlings, disease rating; conditions: 200 ppm test suspension;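 further: 200 ppm unless marked * meaning 40 ppm or ** meaning 10 ppm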

Compound	Test J disease control rating (Phytophthora infestans) [%]	Test K disease control rating (Plasmopara viticola) [%]	Test C disease control rating (Fusarium graminearum) [%]	Test D disease control rating (Septoria nodorum) [%]	Test F disease control rating [1] [%]	Test I disease control rating (Rhizoctonia oryzae) [%]	Test A disease control rating [2] [%]	Test L disease control rating (Pythium aphanidermatum) [%]	Test H disease control rating (Botrytis cinerea) [%]	Test B disease control rating [3] [%]
COCC(C)Nc1nccc(-c2c(-c3ccc(OC)cc3)nn3c2CCC3)n1 (stereo not shown) [compound 86]	94	0	0	51	0	0	0	99	0	–
C#CCNc1nccc(-c2c(-c3ccc(F)cc3)nn3c2CCCC3)n1 [compound 17]	100	86	100	98	77	0	64	100	97	99
CCC(C)CNc1nccc(-c2c(-c3ccc(F)cc3)nn3c2CCCC3)n1 (stereo not shown) [compound 6]	0	0	100	0	0	0	0	0	0	73
COc1ccc(-c2nn3c(c2-c2ccnc(NC4CC4)n2)CCC3)cc1 [compound 93]	95	0	99	0	0	0	0	90	0	0
CCNc1nccc(-c2c(-c3ccc(F)cc3)nn3c2CCCC3)n1 [compound 18]	99	0	100	97	98	0	96	100	74	100
C=CCNc1nccc(-c2c(-c3ccc(F)cc3)nn3c2CCCC3)n1 [compound 15]	97	0	100	98	17	0	86	100	92	99
C=CCNc1nccc(-c2c(-c3ccc(F)cc3)nn3c2CCC3)n1 [compound 95]	99	0	100	99	21	0	68	95	87	100
COCC(C)Nc1nccc(-c2c(-c3ccc(F)cc3)nn3c2CCC3)n1 (stereo not shown) [compound 84]	93	0	100	99	98	16	60	100	52	99
